Source: US11993576B2, “N-benzyl-N-arylsulfonamide derivative and preparation and use thereof” (Hangzhou Yirui Pharmaceutical Technology Co., Ltd, priority 2019, dated 2024)

Assays:
[1] = test system: rat model of allergic contact dermatitis (ACD); experiment: Rat model of allergic contact dermatitis (ACD model) induced by DNCB; assay type: in vivo; settings: SD female rats, 5%, 1.5%, 0.5% applied to right ear by wiping three times a day, 4 days, FIG. 1
Description: IV. Effects of Compound 37 on a Rat Model of Allergic Contact Dermatitis (ACD Model) 1. Laboratory Animal
SPF SD female rats with body weight of 130-150 g were used.
Dexamethasone (DXMS) sodium phosphate injection, 5 mg/ml/injection (Shiyao Yinhu Pharmaceutical Co., Ltd.); 1-chloro-2,4-dinitrobenzene (DNCB) (TCI Shanghai); vehicle and negative control: acetone/DMSO 9:1 (Vehicle, Model group).
3.1 The animals were randomly divided into 6 groups based on body weight with 10 animals per group: blank control group, model control group, positive control group (dexamethasone sodium phosphate injection 5 mg/mL), 5% Compound 37 group, 1.5% Compound 37 group and 0.5% Compound 37 group.
3.2 Modeling and administration: a rat model of allergic contact dermatitis (ACD) was established by sensitizing and stimulating the rat's skin with a DNCB solution in acetone and DMSO (acetone-DMSO 9:1). The rats were normally fed in a SPF barrier system for 1 week. Long hair was removed with a razor and short hair was removed with depilatory cream within an area of about 2 cm×2 cm from abdomen of the rats one day before the experiment. […]
3.3 Measurement of difference between ear thicknesses: before the stimulation and after the final administration, the thickness of central parts of left and right ears of the rats in each of the groups was measured with electronic digital calipers. […]

human Kv1.3 = human Kv1.3 (Homo sapiens, UniProt P22001); experiment: Conventional patch clamp assay of inhibitory activity against Kv1.3; assay type: cell-based; settings: conventional patch-clamp method; CHO-K1 cells stably expressing human Kv1.3
Text: II. Conventional Patch Clamp Assay of Inhibitory Activity Against Kv1.3
In order to compare the influence of different assay methods on the inhibitory activity of a compound, the conventional patch clamp method was used to assay the inhibitory activities of compounds 21, 37, 44, 61 against Kv1.3. The principle and method for the conventional patch clamp method can be found in Grissmer et al. [Grissmer et al. Molecular Pharmacology 1994, 45:1227-1234].
Inhibitory activity of the compounds against Kv1.3 was assessed using a CHO-K1 recombinant cell line stably expressing human Kv1.3 (Charles River, California). The cells were cultured in an F-12K culture medium containing 5% calf serum (Invitrogen, Carlsbad.ca) in an incubator at 37° C. and under air humidity with 6% CO2.
During the experiment, adherent cells were placed in a recording chamber under an inverted microscope. All the experiments were performed at room temperature. Each of the cells used itself as the control.
The test compounds were formulated to their final concentrations on the day of assay, and then dissolved in an extracellular fluid. The extracellular fluid (mM) was: NaCl, 137; KCl, 4; CaCl2, 1.8; MgCl2, 1; HEPES, 10; glucose 10; pH 7.4 (NaOH titration). All the solutions of the test compounds and the control compounds contained 0.3% of DMSO.
Each of the compounds was perfused by a gravity-driven perfusion system. At least two cells were tested for each of the concentrations of a compound. After the current was stable, the blocking effect of the compounds was calculated by comparing the change in the current before and after administration of the compounds. 1000 μM 4-AP was used as a positive control.
The cells were transferred to a perfusion chamber, and were perfused with the extracellular fluid. Intracellular fluid (mM): K-aspartate, 130; MgCl2, 5; EGTA 5; HEPES, 10; pH 7.2 (KOH titration). The intracellular fluid was stored in a small amount in a refrigerator at −80° C. in batches, and was thawed on the day of the experiment. The electrodes were drawn by PC-10 (Narishige, Japan). A whole-cell patch-clamp recording was performed, with the noise being filtered by one-fifth of the sampling frequency.
The cells were clamped at −80 mV and then depolarized to 0 mV with square waves lasting for 2 seconds to obtain a Kv1.3 current. This process was repeated every 20 seconds. The maximum current elicited by the square waves was detected. After the maximum current became stable, the test compounds were perfused. After the reaction was stable, the blocking strength was calculated.
Data was collected and analyzed using pCLAMP 10 (Molecular Devices, Union City, CA). A stable current meant a current which varies within a limited range over time. […]

human Kv1.3, sequence (P22001 whole entry): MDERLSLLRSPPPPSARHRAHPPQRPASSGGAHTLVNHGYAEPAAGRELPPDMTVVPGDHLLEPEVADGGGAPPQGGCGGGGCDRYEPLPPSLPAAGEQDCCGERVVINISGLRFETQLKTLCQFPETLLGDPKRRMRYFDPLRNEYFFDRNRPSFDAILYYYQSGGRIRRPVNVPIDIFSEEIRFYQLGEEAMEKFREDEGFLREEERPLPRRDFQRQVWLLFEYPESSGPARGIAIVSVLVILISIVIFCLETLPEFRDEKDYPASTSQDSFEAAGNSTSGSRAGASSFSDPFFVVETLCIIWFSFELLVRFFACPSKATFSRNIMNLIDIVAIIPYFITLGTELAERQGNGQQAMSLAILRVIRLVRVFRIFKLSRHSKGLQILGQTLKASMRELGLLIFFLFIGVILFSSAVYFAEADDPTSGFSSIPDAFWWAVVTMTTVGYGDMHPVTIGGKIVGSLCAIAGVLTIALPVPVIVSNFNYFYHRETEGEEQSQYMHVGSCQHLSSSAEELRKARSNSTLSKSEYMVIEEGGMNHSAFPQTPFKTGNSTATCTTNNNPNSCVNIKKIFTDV

- IC50 (human Kv1.3): 108 nM
Structure (SMILES): CC(C)CS(=O)(=O)N(Cc1ccc(F)cc1)c1ccc(N2CCN(C(=O)N(C)C)CC2)c(C#N)c1 [Compound 37, 4-(2-cyano-4-((N-(4-fluorobenzyl)-2-methylpropyl)sulfonamido)phenyl)-N,N-dimethylpiperazin-1-formamide]
- ear inflammation (difference between ear thicknesses) [1]: significantly reduced ear inflammation
